Data as given in patent publication US11548900B2, “Oxazino-quinazoline and oxazino-quinoline type compound, preparation method and uses thereof” (BEIJING SCITECH-MQ PHARMACEUTICALS LIMITED, priority 2018, dated 2023).

Tests used:
EGFR kinase = EGFR kinase (Homo sapiens (Human), UniProt P00533); assay: Inhibition of EGFR kinase activity (ULight-labeled JAK-1 (Tyr1023) peptide substrate); type: biochemical; conditions: EGFR kinase 0.35 nM, ATP 150 μM, 2 hours
Protocol: (§1) The assay for the inhibition of EGFR and HER2 kinase activity by small molecular compounds was carried out using the method as follows:
(§2) 1) Dilution of the compounds
(§3) In a 96-well plate a, the compounds were diluted with DMSO using a 3-fold gradient dilution to form 11 concentrations, the 12th concentration is pure DMSO (as a positive control); and in a new 96-well plate b the above solutions were diluted 25 times with ultrapure water (DMSO concentration is 4%).
(§4) 2) Transferring the compounds to 384-well plate
(§5) The compound solutions diluted with ultrapure water in the 96-well plate b above was transferred to the corresponding wells of a 384-well plate in duplicate.
(§6) 3) Addition of 4×kinase solution: 2.5 μl of the above 4× kinase solution was taken using multichannel pipette and added to the corresponding reaction wells of the 384-well plate, mixed well and pre-reacted at room temperature for 5 minutes.
(§7) 4) Addition of 2×substrate/ATP mixed solution: 5 μl of the above 2×substrate/ATP mixed solution was taken using multichannel pipette and added to the corresponding reaction wells of the 384-well plate.
(§8) 5) Negative control: negative control wells were set in the 384-well plate, and 2.5 μl 4×substrate, 2.5 μl 4×enzyme solution, 2.5 μl 1×Kinase Assay Buffer and 2.5 μl ultrapure water containing 4% DMSO were added to each well.
(§9) 6) Mixed by centrifugation and kept at room temperature for 2 hours in the dark.
(§10) 7) Termination of the enzymatic reaction:
(§11) 5 μl of the above 4× stop solution was pipetted to the corresponding wells of the 384-well plate, centrifuged and mixed, and reacted at room temperature for 5 minutes.
(§12) 5 μl of the above 4× detection solution was pipetted into the corresponding wells of the 384-well plate, centrifuged and mixed, and reacted at room temperature for 1 hour.
(§13) 9) The 384-well plate was placed into a microplate reader and the signal was detected using the corresponding program.
(§14) 10) IC50 analysis: Well reading value=10000*EU665 value/EU615 value Inhibition rate=(reading value of positive control well−reading value of experimental well)/(reading value of positive control well−reading value of negative control well)*100% Corresponding IC50s can be calculated by entering the drug concentrations and the corresponding inhibition rates into GraphPad Prism 5.
Conditions of experiment for screening EGFR kinase inhibitory molecules:
The final concentration of EGFR kinase in the reaction system is 0.35 nM, and the final concentration of ATP is 150 μM, the final concentration of substrate ULight™-labeled JAK-1 (Tyr1023) Peptide is 100 nM, and the enzymatic reaction time is 2 hours.
(§15) The maximum final concentration of the compound in the reaction system is 2.5 μM, 11 concentrations were made with a 3-fold gradient dilution, and the minimal final concentration is 0.042 nM. The final concentration of DMSO is 1%.

HER2 kinase = HER2 kinase (Homo sapiens (Human), UniProt P04626); assay: Inhibition of HER2 kinase activity (ULight-labeled PolyGT substrate); type: biochemical; conditions: HER2 kinase 10 nM, ATP 10 μM, 2 hours
Sequence of HER2 kinase (P04626 23-1255): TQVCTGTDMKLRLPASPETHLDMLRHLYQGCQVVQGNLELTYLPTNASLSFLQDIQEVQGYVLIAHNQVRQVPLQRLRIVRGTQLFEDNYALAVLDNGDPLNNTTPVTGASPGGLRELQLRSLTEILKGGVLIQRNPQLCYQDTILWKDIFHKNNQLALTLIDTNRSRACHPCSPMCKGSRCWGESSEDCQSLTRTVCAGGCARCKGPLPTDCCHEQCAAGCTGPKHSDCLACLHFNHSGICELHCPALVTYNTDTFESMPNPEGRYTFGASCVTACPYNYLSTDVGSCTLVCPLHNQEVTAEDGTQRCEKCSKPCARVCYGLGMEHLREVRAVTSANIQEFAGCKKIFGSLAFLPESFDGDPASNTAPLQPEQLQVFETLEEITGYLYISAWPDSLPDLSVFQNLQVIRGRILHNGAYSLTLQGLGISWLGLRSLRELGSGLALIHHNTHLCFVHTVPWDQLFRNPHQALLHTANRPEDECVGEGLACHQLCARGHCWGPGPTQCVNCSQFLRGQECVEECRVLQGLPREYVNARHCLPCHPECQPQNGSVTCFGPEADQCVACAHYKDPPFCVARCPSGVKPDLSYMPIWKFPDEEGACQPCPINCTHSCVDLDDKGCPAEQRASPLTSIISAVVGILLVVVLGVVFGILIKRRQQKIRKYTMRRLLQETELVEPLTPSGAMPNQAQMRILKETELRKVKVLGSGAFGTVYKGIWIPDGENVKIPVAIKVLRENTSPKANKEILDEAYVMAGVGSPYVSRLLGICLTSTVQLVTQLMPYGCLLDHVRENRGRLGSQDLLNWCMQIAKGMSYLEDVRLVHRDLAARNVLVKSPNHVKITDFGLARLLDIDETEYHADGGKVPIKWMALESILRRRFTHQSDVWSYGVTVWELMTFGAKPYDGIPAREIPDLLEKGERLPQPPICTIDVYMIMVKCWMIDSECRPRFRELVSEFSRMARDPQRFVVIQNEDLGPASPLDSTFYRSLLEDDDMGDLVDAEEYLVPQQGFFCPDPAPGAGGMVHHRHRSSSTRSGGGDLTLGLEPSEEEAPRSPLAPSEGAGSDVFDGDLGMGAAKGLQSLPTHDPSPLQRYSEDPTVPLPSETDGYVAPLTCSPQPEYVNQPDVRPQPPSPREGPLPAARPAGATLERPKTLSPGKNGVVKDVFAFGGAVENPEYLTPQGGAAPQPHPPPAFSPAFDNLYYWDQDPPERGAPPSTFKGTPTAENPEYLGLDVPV
Protocol: as §1, §2, §3, §4, §5, §6, §7, §8, §9, §10, §11, §12, §13, §14
Conditions of experiment for screening HER2 kinase inhibitory molecules:
The final concentration of HER2 kinase in the reaction system is 10 nM, the final concentration of ATP is 10 μM, the final concentration of substrate ULight™-labeled PolyGT is 100 nM, and the enzymatic reaction time is 2 hours.
as §15

BT474 cells = assay: Inhibition of cell proliferation, BT474 (CCK-8, 72 h); type: cell-based; conditions: Homo sapiens, BT-474, 72 h incubation
Protocol: The assay for the inhibition of cell proliferation by small molecular compounds was carried out using the method as follows:
1. 600 μL pancreatin was added to a T75 cell culture flask, which was digested in a 37° C. incubator for about 1 min before 5 mL of DMEM complete culture solution was added, blew evenly, transferred to a 15 mL centrifuge tube, and centrifuged at 1000 rpm for 4 min;
2. The supernatant was removed and 5 mL DMEM complete culture solution was added, blew evenly, and 10 μL cell suspension was taken and mixed with 10 μL 0.4% Trypan Blue, and counted using a cell counter;
3. BT474 and HCC827 cell lines were seeded in 96-well plates at a cell density of 10,000 and 3000 cells/well/80 μL, respectively, and cultured overnight. Only sterile water was added to the 36 wells on the periphery of the 96-well plate without adding cells, and only the 60 wells in the center of the 96-well plate were used for cell assays and controls;
4. Dilution of compounds: the compounds were diluted with a 3-fold dilution to make 10 concentrations in total with an initial concentration of 10 mM;
5. 20 μL of different compounds with different concentrations were added to each well, and 20 μL of complete culture solution was added to the remaining wells. The final concentration of DMSO in each well is 0.25%;
6. After 72 h of incubation, 10 μL CCK-8 reagent was added to each well, and incubated at 37° C. for 1-2 h; and the OD value was read at 450 nm;
7. Cell survival rate (%)=[(As−Ab)/(Ac−Ab)]*100%
As: Assay well (medium containing cell, CCK-8, compound)
Ac: Control well (medium containing cell, CCK-8)
Ab: Blank well (CCK-8, medium without cell and compound)
8. The value was imported into Graphpad Prism5 software for the calculation of IC50s (compound concentration at which 50% maximum survival rate is observed).

Sequence of EGFR kinase (P00533 25-1210): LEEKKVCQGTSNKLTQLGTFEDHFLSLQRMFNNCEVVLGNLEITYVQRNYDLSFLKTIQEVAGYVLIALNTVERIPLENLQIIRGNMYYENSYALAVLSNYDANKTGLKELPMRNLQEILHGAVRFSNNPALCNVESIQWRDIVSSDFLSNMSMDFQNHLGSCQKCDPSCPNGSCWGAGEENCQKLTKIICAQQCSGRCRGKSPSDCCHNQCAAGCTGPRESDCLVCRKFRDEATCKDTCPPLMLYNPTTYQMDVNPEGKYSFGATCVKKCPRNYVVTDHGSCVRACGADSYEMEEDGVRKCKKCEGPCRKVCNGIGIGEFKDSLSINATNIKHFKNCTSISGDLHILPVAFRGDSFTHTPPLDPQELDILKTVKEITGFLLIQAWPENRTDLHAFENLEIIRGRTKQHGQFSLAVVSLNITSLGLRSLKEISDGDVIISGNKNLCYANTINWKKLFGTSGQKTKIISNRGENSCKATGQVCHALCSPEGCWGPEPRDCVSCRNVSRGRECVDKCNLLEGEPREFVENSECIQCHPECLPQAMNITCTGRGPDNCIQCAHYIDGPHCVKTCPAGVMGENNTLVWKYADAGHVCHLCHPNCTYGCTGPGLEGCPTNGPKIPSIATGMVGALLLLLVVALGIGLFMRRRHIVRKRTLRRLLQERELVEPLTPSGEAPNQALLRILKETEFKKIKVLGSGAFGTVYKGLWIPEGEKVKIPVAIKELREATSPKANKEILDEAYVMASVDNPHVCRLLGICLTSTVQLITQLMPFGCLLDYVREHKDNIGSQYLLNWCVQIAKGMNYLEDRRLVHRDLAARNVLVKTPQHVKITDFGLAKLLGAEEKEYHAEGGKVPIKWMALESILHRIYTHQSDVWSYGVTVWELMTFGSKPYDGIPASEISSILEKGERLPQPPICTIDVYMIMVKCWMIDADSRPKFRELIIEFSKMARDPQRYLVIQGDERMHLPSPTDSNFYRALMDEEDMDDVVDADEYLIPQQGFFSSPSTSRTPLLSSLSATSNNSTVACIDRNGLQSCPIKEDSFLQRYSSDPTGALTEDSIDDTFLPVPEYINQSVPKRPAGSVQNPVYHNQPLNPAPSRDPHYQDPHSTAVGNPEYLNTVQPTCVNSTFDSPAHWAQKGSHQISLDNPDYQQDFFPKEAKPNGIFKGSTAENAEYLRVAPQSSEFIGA

| Compound | IC50 (EGFR kinase) | IC50 (HER2 kinase) | IC50 (BT474 cells) |
| --- | --- | --- | --- |
| C=CC(=O)N1CCOc2c1ccc1ncnc(Nc3ccc(Oc4ccccc4)cc3)c21 [Example 2, 1-(10-((4-phenoxyphenyl)amino)-2,3-dihydro-4H-[1,4]oxazino[2,3-f]quinazolin-4-yl)prop-2-en-1-one] | ≤ 50 nM | ≤ 50 nM | – |
| C=CC(=O)N1CCOc2c1ccc1ncnc(Nc3ccc(OCc4cccc(F)c4)c(Cl)c3)c21 [Example 3] | ≤ 50 nM | ≤ 50 nM | – |
| C=CC(=O)N1CCOc2c1ccc1ncnc(Nc3ccc(OCc4ccccn4)c(Cl)c3)c21 [Example 4, 1-(10-((3-chloro-4-(pyridin-2-ylmethoxy)phenyl)amino)-2,3-dihydro-4H-[1,4]oxazino[2,3-f]quinazolin-4-yl)prop-2-en-1-one] | ≤ 50 nM | ≤ 50 nM | – |
| C=CC(=O)N1CCOc2c1ccc1ncnc(Oc3ccc(Oc4ccccc4)cc3)c21 [Example 33, 1-(10-(4-phenoxyphenoxy)-2,3-dihydro-4H-[1,4]oxazino[2,3-f]quinazolin-4-yl)prop-2-en-1-one] | ≤ 50 nM | ≤ 50 nM | – |
| C=CC(=O)N1CCOc2c1ccc1ncnc(Oc3ccc(OCc4ccccn4)c(Cl)c3)c21 [Example 34, 1-(10-(3-chloro-4-(pyridin-2-ylmethoxy)phenoxy)-2,3-dihydro-4H-[1,4]oxazino[2,3-f]quinazolin-4-yl)prop-2-en-1-one] | ≤ 50 nM | ≤ 50 nM | – |
| C=CC(=O)N1CCOc2c1ccc1ncnc(Oc3ccc(OCc4cccc(F)c4)c(Cl)c3)c21 [Example 35, 1-(10-(3-chloro-4-((3-fluorobenzyl)oxy)phenoxy)-2,3-dihydro-4H-[1,4]oxazino[2,3-f]quinazolin-4-yl)prop-2-en-1-one] | ≤ 50 nM | ≤ 50 nM | – |
| C=CC(=O)N1CCOc2c1ccc1ncnc(Oc3ccc(Oc4ccc(Cl)cc4)cc3)c21 [Example 36, 1-(10-(4-(4-chlorophenoxy)phenoxy)-2,3-dihydro-4H-[1,4]oxazino[2,3-f]quinazolin-4-yl)prop-2-en-1-one] | – | ≤ 50 nM | – |
| C=CC(=O)N1CCOc2c1ccc1ncnc(Oc3ccc(Oc4ccc(F)cc4)cc3)c21 [Example 37, 1-(10-(4-(4-fluorophenoxy)phenoxy)-2,3-dihydro-4H-[1,4]oxazino[2,3-f]quinazolin-4-yl)prop-2-en-1-one] | ≤ 50 nM | ≤ 50 nM | – |
| C=CC(=O)N1CCOc2c1ccc1ncnc(Oc3ccc(Oc4cc(Cl)ccc4Cl)cc3)c21 [Example 38, 1-(10-(4-(2,5-dichlorophenoxy)phenoxy)-2,3-dihydro-4H-[1,4]oxazino[2,3-f]quinazolin-4-yl)prop-2-en-1-one] | – | ≤ 50 nM | – |
| C=CC(=O)N1CCOc2c1ccc1ncnc(Oc3ccc(OCc4ccccn4)cc3)c21 [Example 39, 1-(10-(4-(pyridin-2-ylmethoxy)phenoxy)-2,3-dihydro-4H-[1,4]oxazino[2,3-f]quinazolin-4-yl)prop-2-en-1-one] | ≤ 50 nM | ≤ 50 nM | – |

Results, then the molecule that gave them:

| IC50 (EGFR kinase) | IC50 (HER2 kinase) | IC50 (BT474 cells) | Compound |
| --- | --- | --- | --- |
| – | ≤ 50 nM | – | O=C(/C=C/CN1CCCCC1)N1CCOc2c1ccc1ncnc(Nc3ccc(Oc4ccccc4)cc3F)c21 [Example 97, (E)-1-(10-((2-fluoro-4-phenoxyphenyl)amino)-2,3-dihydro-4H-[1,4]oxazino[2,3-f]quinazolin-4-yl)-4-(piperidin-1-yl)but-2-en-1-one] |
| – | ≤ 50 nM | – | O=C(/C=C/CN1CCCCC1)N1CCOc2c1ccc1ncnc(Nc3ccc(Oc4ccccc4)c(F)c3)c21 [Example 98, (E)-1-(10-((3-fluoro-4-phenoxyphenyl)amino)-2,3-dihydro-4H-[1,4]oxazino[2,3-f]quinazolin-4-yl)-4-(piperidin-1-yl)but-2-en-1-one] |
| – | ≤ 50 nM | ≤ 50 nM | CN1CCC[C@@H]1/C=C/C(=O)N1CCOc2c1ccc1ncnc(Nc3ccc(OCc4ccccn4)c(Cl)c3)c21 [Example 114] |
| – | ≤ 50 nM | ≤ 50 nM | O=C(/C=C/CN1CCC(O)CC1)N1CCOc2c1ccc1ncnc(Nc3ccc(OCc4ccccn4)c(Cl)c3)c21 [Example 115, (E)-1-(10-((3-chloro-4-(pyridin-2-ylmethoxy)phenyl)amino)-2,3-dihydro-4H-[1,4]oxazino[2,3-f]quinazolin-4-yl)-4-(4-hydroxypiperidin-1-yl)but-2-en-1-one] |
| – | ≤ 50 nM | ≤ 50 nM | O=C(/C=C/CN1CCC(CO)CC1)N1CCOc2c1ccc1ncnc(Nc3ccc(OCc4ccccn4)c(Cl)c3)c21 [Example 117, (E)-1-(10-((3-chloro-4-(pyridin-2-ylmethoxy)phenyl)amino)-2,3-dihydro-4H-[1,4]oxazino[2,3-f]quinazolin-4-yl)-4-(4-(hydroxymethyl)piperidin-1-yl)but-2-en-1-one] |
| – | ≤ 50 nM | ≤ 50 nM | O=C(/C=C/CN1CCC(F)CC1)N1CCOc2c1ccc1ncnc(Nc3ccc(OCc4ccccn4)c(Cl)c3)c21 [Example 118, (E)-1-(10-((3-chloro-4-(pyridin-2-ylmethoxy)phenyl)amino)-2,3-dihydro-4H-[1,4]oxazino[2,3-f]quinazolin-4-yl)-4-(4-fluoropiperidin-1-yl)but-2-en-1-one] |
| – | ≤ 50 nM | ≤ 50 nM | CN(C/C=C/C(=O)N1CCOc2c1ccc1ncnc(Nc3ccc(OCc4ccccn4)c(Cl)c3)c21)CCCO [Example 120, (E)-1-(10-((3-chloro-4-(pyridin-2-ylmethoxy)phenyl)amino)-2,3-dihydro-4H-[1,4]oxazino[2,3-f]quinazolin-4-yl)-4-((3-hydroxypropyl)(methyl)amino)but-2-en-1-one] |
| – | ≤ 50 nM | ≤ 50 nM | C[C@H]1CN(C)CCN1C/C=C/C(=O)N1CCOc2c1ccc1ncnc(Nc3ccc(OCc4ccccn4)c(Cl)c3)c21 [Example 121, (S,E)-1-(10-((3-chloro-4-(pyridin-2-ylmethoxy)phenyl)amino)-2,3-dihydro-4H-[1,4]oxazino[2,3-f]quinazolin-4-yl)-4-(2,4-dimethylpiperazin-1-yl)but-2-en-1-one] |
| – | ≤ 50 nM | ≤ 50 nM | CN(C/C=C/C(=O)N1CCOc2c1ccc1ncnc(Nc3ccc(OCc4ccccn4)c(Cl)c3)c21)CCO [Example 122, (E)-1-(10-((3-chloro-4-(pyridin-2-ylmethoxy)phenyl)amino)-2,3-dihydro-4H-[1,4]oxazino[2,3-f]quinazolin-4-yl)-4-((2-hydroxyethyl)(methyl)amino)but-2-en-1-one] |
| – | ≤ 50 nM | ≤ 50 nM | C[C@@H]1CN(C)CCN1C/C=C/C(=O)N1CCOc2c1ccc1ncnc(Nc3ccc(OCc4ccccn4)c(Cl)c3)c21 [Example 123, (R,E)-1-(10-((3-chloro-4-(pyridin-2-ylmethoxy)phenyl)amino)-2,3-dihydro-4H-[1,4]oxazino[2,3-f]quinazolin-4-yl)-4-(2,4-dimethylpiperazin-1-yl)but-2-en-1-one] |
